Some test systems named below: ACHN; HCT-116; HCT-15; HL-60; HOP-62; KM12; LOX IMVI; MCF7; MDA-MB-231; Malme-3M; NCI-H23; NCI-H460; OVCAR-3; RPMI-8226; SF-295; SK-MEL-28; SR; SW-620; U-251; UACC-257.
What all share (test): DTP human tumour cell line panel, 48 h

Results on ten compounds are retold here after ChEMBL document CHEMBL1201862, “PubChem BioAssay data set” (2004).

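How tested: cells in 96-well plates exposed to compound for 48 hours at five concentrations. At the GI50, growth is halved.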 Activity calls are given as the source filed them. No stated cut-off is given here; in the data, active = GI50 up to about 1.1 µM and inactive = higher. Where only a bound is given, the exact number is not on record here.

As usually defined, the GI50 is the concentration at which growth is held to half of that of the control. Turning to `CCOC(=O)c1cccc(/N=N/Nc2cccc(C(=O)OCC)c2)c1`, the GI50 in the assay with ACHN was 53.8 µM (inactive); with HCT-116 it was 31.9 µM (inactive); with HCT-15 it was above 100 µM; in the assay on HL-60, > 100 µM (inactive); with HOP-62, 9.12 µM (inactive); in the assay on KM12 it was > 100 µM (inactive). Further, the GI50 was > 100 µM (inactive) in the assay on LOX IMVI; 61.7 µM (inactive) in the assay with MCF7; 17.8 µM (inactive) in the assay with MDA-MB-231; 43.8 µM (inactive) with Malme-3M; 43.2 µM (inactive) in the assay with NCI-H23; 64 µM (inactive) in the assay on NCI-H460. The GI50 in the assay on OVCAR-3 is 26.8 µM (inactive); with RPMI-8226, > 100 µM (inactive); in the assay on SF-295 it was 15.6 µM (inactive); in the assay with SK-MEL-28 it was > 100 µM (inactive); with SR, 1.09 µM (active); in the assay on SW-620, 68.7 µM (inactive). For the same compound, the GI50 was 20.1 µM (inactive) in the assay with U-251 and 56.9 µM (inactive) with UACC-257.

As to `O=C(O)C(Sc1ccc(Cl)cc1)Sc1ccc(Cl)cc1`, the GI50 with ACHN was 47.4 µM (inactive); in the assay on HCT-116 it was 35.2 µM (inactive); in the assay on HCT-15, 36 µM; with HL-60, 33.8 µM (inactive); with HOP-62 it was 79.3 µM (inactive); in the assay with KM12, 37.9 µM (inactive). The GI50 was 41.9 µM (inactive) with LOX IMVI; 92.3 µM (inactive) in the assay with MCF7; 66.8 µM (inactive) in the assay on MDA-MB-231; 71 µM (inactive) in the assay with Malme-3M; 44.2 µM (inactive) in the assay with NCI-H23; 34 µM (inactive) in the assay with NCI-H460. Besides, the GI50 in the assay with OVCAR-3 was 32.6 µM (inactive); in the assay on RPMI-8226, 31.6 µM (inactive); in the assay with SF-295, 46.9 µM (inactive); with SK-MEL-28 it was 70 µM (inactive); with SR, 39.6 µM (inactive); with SW-620, 58.7 µM (inactive). In addition, the GI50 is 36.4 µM (inactive) in the assay with U-251 and 44.5 µM (inactive) in the assay with UACC-257.

As for `Nc1ccccc1C(=O)NC(=O)Nc1ccc(Oc2ncc(Br)cn2)c(Cl)c1`, the GI50 is 0.0614 µM (active) in the assay with ACHN; < 0.01 µM (active) in the assay on HCT-116; below 0.01 µM with HCT-15; < 0.01 µM (active) with HL-60; 0.0109 µM (active) with HOP-62; < 0.01 µM (active) in the assay on KM12. Further, the GI50 in the assay with LOX IMVI was < 0.01 µM (active); in the assay with MCF7, < 0.01 µM (active); in the assay with MDA-MB-231 it was 0.0145 µM (active); in the assay on Malme-3M it was < 0.01 µM (active); in the assay on NCI-H23, 0.0108 µM (active); with NCI-H460 it was < 0.01 µM (active). Also, the GI50 in the assay with OVCAR-3 was < 0.01 µM (active); in the assay on RPMI-8226, 0.0182 µM (active); in the assay on SF-295, < 0.01 µM (active); with SK-MEL-28, < 0.01 µM (active); in the assay on SR, < 0.01 µM (active); with SW-620, < 0.01 µM (active). For the same compound, the GI50 is < 0.01 µM (active) in the assay on U-251 and < 0.0259 µM (active) with UACC-257.

With `O=C(O)/C=C(/C(=O)O)C12CCN3CC4=CCOC5CC(=O)NC1C5C4CC32` (stereo not given), the GI50 in the assay on ACHN is > 100 µM (inactive); in the assay with HCT-116, > 100 µM (inactive); in the assay with HCT-15, above 100 µM; in the assay on HL-60 it was > 100 µM (inactive); in the assay with HOP-62, > 100 µM (inactive); in the assay on KM12 it was > 100 µM (inactive). For the same compound, the GI50 in the assay with LOX IMVI, in the assay with MCF7, with MDA-MB-231, in the assay with Malme-3M, in the assay with NCI-H23 and in the assay on NCI-H460 was > 100 µM (inactive) in each case. In addition, the GI50 in the assay on OVCAR-3, in the assay on RPMI-8226, in the assay on SF-295, in the assay with SK-MEL-28, in the assay on SR and with SW-620 was > 100 µM (inactive) throughout. Further, the GI50 in the assay on U-251 and with UACC-257 was > 100 µM (inactive) in each case.

On to `CCCCCC(=O)NC(=S)Nc1nnn[nH]1`, for which the GI50 with ACHN was > 10 µM (inactive); with HCT-116 it was > 100 µM (inactive); in the assay with HCT-15, above 100 µM; with HL-60, > 100 µM (inactive); in the assay on HOP-62, > 100 µM (inactive); with KM12 it was > 100 µM (inactive). The GI50 with LOX IMVI, in the assay with MCF7, in the assay with MDA-MB-231, with Malme-3M, with NCI-H23 and in the assay with NCI-H460 was > 100 µM (inactive) throughout. The GI50 in the assay with OVCAR-3, in the assay with RPMI-8226, with SF-295, in the assay with SK-MEL-28, with SR and in the assay on SW-620 was > 100 µM (inactive) throughout. Also, the GI50 in the assay with U-251 and with UACC-257 was > 100 µM (inactive) each time.

On to `CCOC(=O)c1nc2ccccc2nc1NCc1ccc(OC)c(OC)c1`, for which the GI50 in the assay on ACHN is > 100 µM (inactive); with HCT-116 it was > 100 µM (inactive); with HCT-15, above 100 µM; in the assay on HL-60 it was > 100 µM (inactive); in the assay on HOP-62, > 100 µM (inactive); in the assay on KM12, > 100 µM (inactive). Moreover, the GI50 with LOX IMVI, with MCF7, with MDA-MB-231, with Malme-3M, in the assay with NCI-H23 and in the assay on NCI-H460 was > 100 µM (inactive) each time. The GI50 with OVCAR-3, in the assay on RPMI-8226, in the assay on SF-295, in the assay with SK-MEL-28, in the assay on SR and with SW-620 was > 100 µM (inactive) each time. The GI50 with U-251 and with UACC-257 was > 100 µM (inactive) throughout.

On to `O=c1[nH]nc(-c2ccccc2)n1/N=C\CC/C=N\n1c(-c2ccccc2)n[nH]c1=O`, for which the GI50 is 36.6 µM (inactive) with ACHN; 24.2 µM (inactive) in the assay on HCT-116; 21.4 µM with HCT-15; 29.2 µM (inactive) in the assay on HL-60; > 52.4 µM (inactive) in the assay on HOP-62; 34.8 µM (inactive) in the assay with KM12. Moreover, the GI50 in the assay with LOX IMVI was 12.9 µM (inactive); with MCF7, 26.7 µM (inactive); with MDA-MB-231, 29.2 µM (inactive); in the assay on Malme-3M, 25.2 µM (inactive); in the assay on NCI-H23, 14.3 µM (inactive); with NCI-H460 it was > 47.6 µM (inactive). For the same compound, the GI50 in the assay with OVCAR-3 is 20.7 µM (inactive); in the assay on RPMI-8226, 25.3 µM (inactive); in the assay with SF-295, 47.3 µM (inactive); in the assay on SK-MEL-28 it was 23 µM (inactive); in the assay with SR, 34 µM (inactive); in the assay with SW-620, 32.2 µM (inactive). Also, the GI50 in the assay with U-251 was 40.6 µM (inactive); in the assay on UACC-257 it was > 82.2 µM (inactive).

`CN(C)S(=O)(=O)Nc1ccccn1`: the GI50 was > 100 µM (inactive) with ACHN; > 100 µM (inactive) with HCT-116; above 100 µM in the assay with HCT-15; > 100 µM (inactive) with HL-60; > 100 µM (inactive) with HOP-62; > 100 µM (inactive) with KM12. For the same compound, the GI50 in the assay on LOX IMVI, with MCF7, in the assay on MDA-MB-231, in the assay on Malme-3M, in the assay on NCI-H23 and with NCI-H460 was > 100 µM (inactive) in each case. Moreover, the GI50 with OVCAR-3, with RPMI-8226, with SF-295, with SK-MEL-28, in the assay on SR and with SW-620 was > 100 µM (inactive) throughout. In addition, the GI50 in the assay on U-251 and in the assay with UACC-257 was > 100 µM (inactive) throughout.

As for `COc1cc2c(cc1OC)C(=O)/C(=C/c1ccccc1)C2`, the GI50 was > 100 µM (inactive) in the assay on ACHN; 48 µM (inactive) in the assay on HCT-116; above 82 µM in the assay with HCT-15; 16.9 µM (inactive) with HL-60; 52.5 µM (inactive) in the assay on HOP-62; 60.8 µM (inactive) in the assay on KM12. The GI50 in the assay on LOX IMVI is 86.5 µM (inactive); with MCF7 it was > 71.3 µM (inactive); in the assay on MDA-MB-231 it was > 100 µM (inactive); with Malme-3M it was > 83 µM (inactive); with NCI-H23, > 74.8 µM (inactive); in the assay with NCI-H460, 53.7 µM (inactive). In addition, the GI50 is > 100 µM (inactive) with OVCAR-3; 19.1 µM (inactive) in the assay with RPMI-8226; 76.9 µM (inactive) with SF-295; > 100 µM (inactive) in the assay on SK-MEL-28; 29.4 µM (inactive) in the assay with SR; 94 µM (inactive) in the assay with SW-620. For the same compound, the GI50 in the assay with U-251 and in the assay on UACC-257 was > 100 µM (inactive) throughout.

Turning to `COc1ccccc1C(C1=C(O)COC1=O)c1cc2c(cc1OC(C)=O)OCO2` (stereo not given), the GI50 in the assay on ACHN is > 100 µM (inactive); in the assay on HCT-116, > 100 µM (inactive); in the assay on HCT-15, above 100 µM; in the assay on HL-60, > 100 µM (inactive); in the assay with HOP-62, > 100 µM (inactive); in the assay with KM12, > 100 µM (inactive). Moreover, the GI50 with LOX IMVI, with MCF7, with MDA-MB-231, in the assay with Malme-3M, in the assay with NCI-H23 and in the assay on NCI-H460 was > 100 µM (inactive) in each case. The GI50 with OVCAR-3, with RPMI-8226, in the assay with SF-295, with SK-MEL-28, with SR and with SW-620 was > 100 µM (inactive) each time. Besides, the GI50 with U-251 and with UACC-257 was > 100 µM (inactive) each time.
